# Test results published in patent US6500858B2, “Taxoid anti-tumor agents and pharmaceutical compositions thereof” (The Research Foundation of the state University of New York, priority 1994, dated 2002).
# Values joined by “and” are separate entries in the source; they are usually repeats but may differ in a detail not shown here. Equal values may be shown once. Read-outs that look alike come from different tables or passages of the source.
# Tests used:
# MCF-7 ADRr = assay: growth inhibition by cell counts, 72 h; assay type: cell-based, human; settings: read-out: MCF-7 ADRr IC50
# Procedure: (§1) Cells were plated in 6-well flat bottom plates (Falcon, Lincoln Park, N.J.) at a concentration of 10^5 cells ml in complete medium. After 24 h, the medium was replaced with media containing the test substances. Control cells were treated with vehicle alone. Cells were then washed twice and cultures maintained up to 72 h in complete medium (without removing the test substances). At this time point quadruplicate counts of triplicate cultures were performed. To calculate the growth inhibition effect, three independent experiments were performed for each test substance/cell line. The IC50 values were then calculated by fitting the concentration-effect curve data obtained in the three experiments with the sigmoid-Emax model using nonlinear regression, weighted by the reciprocal of the square of the predicted effect according to the method of Motulsky, H. J. and Ransnas, L. A., FASEB J. 1:365-74 (1987).
# NCI-H23 = assay: growth inhibition by cell counts, 72 h; assay type: cell-based, human; settings: read-out: NCI-H23 IC50
# Procedure: as §1
# DU-145 = assay: growth inhibition by cell counts, 72 h; assay type: cell-based, human; settings: read-out: DU-145 IC50
# Procedure: as §1
# PC-3 = assay: growth inhibition by cell counts, 72 h; assay type: cell-based, human
# Procedure: as §1
# A2780 = assay: growth inhibition by cell counts, 72 h; assay type: cell-based, human; settings: read-out: A2780 IC50
# Procedure: as §1
# WiDr = assay: growth inhibition by cell counts, 72 h; assay type: cell-based, human; settings: read-out: WiDr IC50
# Procedure: as §1
# MCF-7 wt = assay: growth inhibition by cell counts, 72 h; assay type: cell-based, human; settings: read-out: MCF-7 wt IC50
# Procedure: as §1
# MCF7 (mammary carcinoma) = assay: tumor cell growth inhibition (SRB, 72 h drug exposure); assay type: cell-based, human
# Procedure: (§2) Lower numbers indicate higher potency. […] The data represent the mean values of at least three separate experiments. Lower numbers indicate greater activity.
# (§3) Assessment of cell growth inhibition was determined according to the methods of Skehan et al., J. Nat. Cancer Inst. […] Briefly, cells were plated between 400 and 1200 cells/well in 96 well plates and incubated at 37° C. for 15-18 h prior to drug addition to allow attachment of cells. […] After a 72 h incubation, […] of ice-cold 50% TCA was added to each well and incubated for 1 h at 4° C. Plates were then washed 5 times with tap water to remove TCA, low-molecular-weight metabolites and serum proteins. Sulforhodamine B (SRB) (0.4%, […]) was added to each well. Following a 5 min incubation at room temperature, plates were rinsed 5 times with 0.1% acetic acid and air dried. […] Optical density was measured at 570 nm.
# A121 (ovarian carcinoma) = assay: as above; assay type: cell-based, human; settings: 72 h drug exposure
# Procedure: as §2, §3
# [1] = system: MCF7-R (mammary carcinoma cells 180-fold resistant to adriamycin); assay: as above; assay type: cell-based, human
# Procedure: as §2, §3
# HT-29 (colon carcinoma) = assay: as above; assay type: cell-based, human; settings: 72 h drug exposure
# Procedure: as §2, §3
# [2] = system: LCC6-MDR: MDR1 transduced line; assay: cytotoxicity assay of second generation taxoids; assay type: cell-based, human; settings: Homo sapiens, LCC6MDR, 72 h, read-out: LCC6-MDR IC50
# [3] = system: LCC6-WT: human breast carcinoma; assay: cytotoxicity assay of second generation taxoids; assay type: cell-based; settings: Homo sapiens, 72 h, read-out: LCC6-WT IC50
# Procedure: A cytotoxicity assay of these new second generation taxoids was performed on human breast cancer cell lines, LCC6-WT and LCC-MDR, and selected taxoids were also assayed for their potency against MCF7 and MCF7-R (Skehan, P., et al., J. Nat. Cancer Inst. 1990, 82, 1107-1112).
# [4] = system: human colon carcinoma cells HCT-116; settings: cited from earlier work
# [5] = system: A549 (non-small cell lung carcinoma); assay: tumor cell growth inhibition (SRB, 72 h drug exposure); assay type: cell-based, human; settings: 72 h drug exposure; read-out: A549 (NSCLC) IC50
# Procedure: as §2, §3
# [6] = system: multi-drug resistant phenotype human colon carcinoma cells HCT-116/VM; settings: cited from earlier work
# [7] = system: docetaxel-resistant melanoma, B16/TXT; assay: intravenous administration to B16/TXT melanoma-bearing mice; assay type: in vivo, B6D2F1 female mice; parameters: key to Responses (activity rating): A = active; HA = highly active; settings: for T/C / log10 cell kill: days 3, 5, 7
# Procedure: (§4) The efficacy of the test compounds on solid tumors in vivo was determined experimentally according to the following general experimental protocol:
# (§5) The mice subjected to the experiment were subcutaneously grafted bilaterally with 30 to 60 mg of a tumor fragment on day zero. Mice bearing tumors were mixed before being subjected to the various treatments and controls. In the case of treatment of advanced tumors, tumors were allowed to develop to the desired size, and mice having insufficiently developed tumors were eliminated. The selected mice were distributed at random to undergo the treatments and controls. Mice not bearing tumors may also be subjected to the same treatments as the tumor-bearing mice in order to be able to dissociate the toxic effect from the specific effect on the tumor. Chemotherapy generally began from 3 to 22 days after grafting, depending on the type of tumor, and the mice were observed every day. The different mice groups were weighed 3 or 4 times a week until the maximum weight loss was attained (nadir), and the groups were then weighed at least once a week until the end of the trial.
# (§6) The tumors were measured 2 or 3 times a week until the tumor reached approximately 2 grams, or until the animal died, if this occurred before the tumor reached 2 grams. The mice were autopsied when sacrificed.
# (§7) The antitumor activity was determined in accordance with different parameters recorded such as dose (mg/kg), mode of administration, time of administration, cytotoxicity, toxicity and log10 cell kill.
# SB-T-1213, SB-T-121303, SB-T-121304 and SB-T-1250 were evaluated in B6D2F1 female mice bearing the docetaxel-resistant melanoma, B16/TXT. The general experimental protocol was as described above. The compounds evaluated were administered intravenously on an intermittent schedule on days 3, 5, and 7 post tumor implantation.
# B16 melanoma = assay: intravenous administration to mice bearing B16 melanoma; assay type: in vivo, B6D2F1 female mice; parameters: key to Responses (activity rating): A = active; HA = highly active
# Procedure: as §4, §5, §6, §7
# SB-T-1213, SB-T-121303, SB-T-121304 and SB-T-1250 were evaluated in B6D2F1 female mice bearing B16 melanoma. The general experimental protocol was as described above. The compounds evaluated were administered intravenously (iv) on an intermittent schedule on days 3, 5, and 7 post tumor implantation. With the exception of SB-T-1250, solutions of the compounds for administration were prepared in 5% ethanol, 5% polysorbate 80, and 90% glucose 5% water.
# [8] = system: mammary adenocarcinoma MA17/A; assay: oral administration to MA17/A tumor-bearing mice; assay type: in vivo, C3H/HeN female mice; parameters: key to Responses (activity rating): A = active; HA = highly active
# Procedure: as §4, §5, §6, §7
# SB-T-1213 was evaluated in C3H/HeN female mice bearing mammary adenocarcinoma MA17/A with an intermittent schedule of oral administrations. The compound for administration was formulated in 10% ethanol, 10% polysorbate 80, and 80% glucose/5% water.
# SB-T-1213 was administered 3 times a day on 3 and 7 days post tumor implantation. The two highest dosages of 36.4 and 22.6 mg/kg/adm. were toxic, producing 5/5 drug related deaths (DD) and 20% body weight loss, respectively. However, the highest nontoxic dose of 14 mg/kg/adm. (total dose of 84 mg/kg), produced 8.4% body weight loss at nadir, 4 days post therapy. […] One of five mice was a tumor-free survivor (TFS) on day 94 post tumor implantation with this dosage. Two lower dosages of 8.7 and 5.4 mg/kg/adm. also maintained activity, having a log10 cell kill of greater than 3 and of 2.5, respectively.
# [9] = cytotoxicity of C-3′ modified docetaxel analog (cell line not clearly stated); assay type: cell-based; settings: compared with isobutenyl group of RAH-1
structure (smiles),measurement,setting,value
"CC(=O)O[C@H]1C(=O)[C@@]2(C)[C@H]([C@H](OC(=O)c3ccccc3)[C@]3(O)C[C@H](OC(=O)[C@H](O)[C@@H](NC(=O)c4ccccc4)c4ccccc4)C(C)=C1C3(C)C)[C@]1(OC(C)=O)CO[C@@H]1C[C@@H]2O [Paclitaxel, paclitaxel, reference compound]",IC50,"MCF-7 ADRr; Homo sapiens, MCF7, 72 h",3300 nM
same,IC50,"NCI-H23; Homo sapiens, NCI-H23, 72 h",4.1 nM
same,IC50,"DU-145; Homo sapiens, DU-145, 72 h",1.5 nM
same,IC50,"PC-3; Homo sapiens, PC-3, 72 h",3.4 nM
same,IC50,"A2780; Homo sapiens, A2780, 72 h",5.4 nM
same,IC50,"WiDr; Homo sapiens, WiDr",3.8 nM
same,IC50,"MCF-7 wt; Homo sapiens, MCF7, 72 h",5.8 nM
same,IC50,"MCF7 (mammary carcinoma); Homo sapiens, MCF7, 72 h drug exposure, Table 1, read-out: MCF7 (breast) IC50",1.7 nM
same,IC50,"MCF7 (mammary carcinoma); Homo sapiens, MCF7, 72 h drug exposure, Table 3, read-out: MCF7 IC50",1.7 nM
same,IC50,"A121 (ovarian carcinoma); Homo sapiens, A121",6.1 nM
same,IC50,"[1]; Homo sapiens, MCF7R, 72 h drug exposure, Table 1",300 nM
same,IC50,"HT-29 (colon carcinoma); Homo sapiens, HT-29",3.2 nM
same,IC50,[2],346 nM
same,IC50,[3],3.1 nM
"CC(=O)OC1C(=O)C2(C)C(O)CC3OCC3(OC(C)=O)C2C(OC(=O)c2ccccc2)C2(O)CC(OC(=O)C(O)C(C=C(C)C)NC(=O)c3ccccc3)C(C)=C1C2(C)C (centres unmarked) [RAH-1, 3′-dephenyl-3′-isobutenylpaclitaxel]",times better activity than docetaxel,[4],7 times
same,times better activity than paclitaxel,[4],4 times
same,IC50,"MCF7 (mammary carcinoma); 72 h drug exposure, Table 1, read-out: MCF7 (breast) IC50",0.54 nM
same,IC50,A121 (ovarian carcinoma),1.4 nM
same,IC50,[5],0.45 nM
same,IC50,"[1]; 72 h drug exposure, Table 1",113 nM
same,activity against MCF7-R in words,[1]; one order of magnitude weaker than Taxoid Ia,only marginal activity
same,IC50,HT-29 (colon carcinoma),0.96 nM
same,times better activity than docetaxel,[6],9 times
same,times better activity than paclitaxel,[6],about 20 times
"CCC(=O)OC1C(=O)C2(C)C(O)CC3OCC3(OC(C)=O)C2C(OC(=O)c2ccccc2)C2(O)CC(OC(=O)C(O)C(C=C(C)C)NC(=O)OC(C)(C)C)C(C)=C1C2(C)C (centres unmarked) [Taxoid Ib, 3′-Dephenyl-3′-(2-methyl-1-propenyl)-10-propanoyldocetaxel]",IC50,MCF-7 ADRr; 72 h,8 nM
same,IC50,NCI-H23; 72 h,0.7 nM
same,IC50,DU-145; 72 h,0.3 nM
same,IC50,PC-3; 72 h,0.3 nM
same,IC50,A2780; 72 h,1.77 nM
same,IC50,WiDr,0.4 nM
same,IC50,MCF-7 wt; 72 h,0.9 nM
same,T/C,[7]; 4.5 mg/kg/adm.,74%
same,Responses (activity rating),[7]; 7.3 mg/kg/adm.,A
same,log10 cell kill,[7]; 7.3 mg/kg/adm.,1
same,Responses (activity rating),[7]; 11.8 mg/kg/adm.,A
same,log10 cell kill,[7]; 11.8 mg/kg/adm.,1
same,Responses (activity rating),[7]; 19 mg/kg/adm.,A
same,T/C,[7]; 19 mg/kg/adm.,11%
same,log10 cell kill,[7]; 19 mg/kg/adm.,1.6
same,% body weight loss at nadir,"[7]; 19 mg/kg/adm., days 3, 5, 7, listed as SB-T-1213, 19 mg/kg",17.1% and 17.1 (4) %
same,Responses (activity rating),B16 melanoma; 4.5 mg/kg/adm.,A
same,log10 cell kill,"B16 melanoma; 4.5 mg/kg/adm., days 3, 5, 7",1.6
same,Responses (activity rating),B16 melanoma; 7.3 mg/kg/adm.,A
same,log10 cell kill,"B16 melanoma; 7.3 mg/kg/adm., days 3, 5, 7",1.8
same,Responses (activity rating),B16 melanoma; 11.8 mg/kg/adm.,HA
same,T/C,"B16 melanoma; 11.8 mg/kg/adm., days 3, 5, 7",0%
same,log10 cell kill,"B16 melanoma; 11.8 mg/kg/adm., days 3, 5, 7",3
same,% body weight loss at nadir,"B16 melanoma; 11.8 mg/kg/adm., days 3, 5, 7, listed as SB-T-1213, 11.8 mg/kg",15.3% and 15.3 (3) %
same,drug related deaths (DD),"B16 melanoma; 19 mg/kg/adm., days 3, 5, 7",⅕
same,highest nontoxic dose,"B16 melanoma; days 3, 5, 7",11.8 mg/kg/adm.
same,IC50,"MCF7 (mammary carcinoma); Table 2, read-out: MCF7 IC50",0.21 nM
same,IC50,[1]; Table 2,2.16 nM
same,Responses (activity rating),[8]; 8.7 mg/kg/adm.,A
same,tumor-free survivors (TFS),[8]; 8.7 mg/kg/adm.,1/5
same,Responses (activity rating),[8]; 14.0 mg/kg/adm.,HA
same,tumor-free survivors (TFS),"[8]; 14 mg/kg/adm., day 94 post tumor implantation, listed as SB-T-1213, 14 mg/kg",One of five and 1/5
same,T/C,"[8]; 14.0 mg/kg/adm., days 3, 7",0%
same,% body weight loss at nadir,"[8]; 14 mg/kg/adm., days 3, 7, total 84 mg/kg, listed as SB-T-1213",8.4% and 8.4 (4) %
same,body weight loss,"[8]; 22.6 mg/kg/adm., 3 times a day on days 3 and 7",20%
same,drug related deaths (DD),"[8]; 36.4 mg/kg/adm., 3 times a day on days 3 and 7",5/5
same,highest nontoxic dose,[8]; 3 times a day on days 3 and 7,14 mg/kg/adm.
CC(=O)OC12COC1CC(O)C1(C)C(=O)C(O)C3=C(C)C(OC(=O)C(O)C(C=Cc4ccccc4)NC(=O)OC(C)(C)C)CC(O)(C(OC(=O)c4ccccc4)C21)C3(C)C (centres unmarked) [3′-dephenyl-3′-(2-phenylethenyl)docetaxel],decrease in cytotoxicity,[9],> 20 times
